The results in this text go back to patent US20070219234A1, “Thienopyridine Derivatives” (priority 2004, published 2007).

The melting point is the temperature, or range, at which the solid turns liquid.

Turning to `CS(=O)(=O)N1CCCN(c2ccnc3sc(C(N)=O)c(N)c23)CC1` [Example 104, 3-amino-4-[4-(methylsulfonyl)-1,4-diazepan-1-yl]thieno[2,3-b]pyridine-2-carboxamide], the melting point was in the range of 214 to 217 °C.

In turn, `NC(=O)c1sc2nccc(N3CCCN(c4ccc(Cl)nn4)CC3)c2c1N` [Example 105, 3-amino-4-[4-(6-chloropyridazin-3-yl)-1,4-diazepan-1-yl]thieno[2,3-b]pyridine-2-carboxamide] showed a melting point of 232 to 234 °C.

`COc1ccnc2sc(C(N)=O)c(N)c12` [Example 107, 3-amino-4-methoxythieno[2,3-b]pyridine-2-carboxamide] gave a melting point of 238 to 241 °C.

Compound `CCOc1ccnc2sc(C(N)=O)c(N)c12` [Example 108, 3-amino-4-ethoxythieno[2,3-b]pyridine-2-carboxamide] yielded a melting point of 241 to 243 °C.

Compound `NC(=O)c1sc2nccc(OCc3ccccc3)c2c1N` [Example 110, 3-amino-4-(benzyloxy)thieno[2,3-b]pyridine-2-carboxamide] registered a melting point of 216 to 221 °C.

Consider `CC(C)Oc1ccnc2sc(C(N)=O)c(N)c12` [Example 111, 3-amino-4-isopropoxythieno[2,3-b]pyridine-2-carboxamide], for which the melting point is 238 to 240 °C (dec.).

The compound `NC(=O)c1sc2nccc(OC3CCCCCC3)c2c1N` [Example 112, 3-amino-4-(cycloheptyloxy)thieno[2,3-b]pyridine-2-carboxamide] had a melting point of 179 to 180 °C.

In turn, `CCSc1ccnc2sc(C(N)=O)c(N)c12` [Example 114, 3-amino-4-(ethylthio)thieno[2,3-b]pyridine-2-carboxamide] came in with a melting point of 230 to 235 °C.

Consider `NC(=O)c1sc2nccc(SC3CCCCC3)c2c1N` [Example 115, 3-amino-4-(cyclohexylthio)thieno[2,3-b]pyridine-2-carboxamide], for which the melting point lay in the range of 195 to 197 °C.
